Data: patent publication US7772180B2, “Hepatitis C virus inhibitors” (Bristol-Myers Squibb Company, priority 2006, dated 2010)
Where two headings read alike, the source gives them in different places.

Key:
[1] = test system: HCV replicon (strain 1b) in HUH-7 cells; experiment: HCV replicon FRET assay; format: cell-based, Hepatitis C virus; settings: Hepatitis C virus
[2] = molecular target: T1, human pancreatic chymotrypsin (Homo sapiens, UniProt P17538); experiment: Specificity assay, chymotrypsin; format: biochemical; settings: read-out: Chymotrypsin activity in the specificity assays (IC50)
T1 construct: purchased Sigma, EMDbiosciences
T1 sequence (P17538 19-263): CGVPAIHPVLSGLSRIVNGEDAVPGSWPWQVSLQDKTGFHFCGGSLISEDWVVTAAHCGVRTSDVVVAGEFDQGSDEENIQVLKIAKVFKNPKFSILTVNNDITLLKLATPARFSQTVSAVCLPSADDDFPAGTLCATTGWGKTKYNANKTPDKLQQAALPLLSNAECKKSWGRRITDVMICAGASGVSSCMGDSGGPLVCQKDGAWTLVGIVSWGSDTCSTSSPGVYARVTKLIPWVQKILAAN
Experimental: The specificities of compounds of the present disclosure were determined against a variety of serine proteases: human neutrophil elastase (HNE), porcine pancreatic elastase (PPE) and human pancreatic chymotrypsin and one cysteine protease: human liver cathepsin B. In all cases a 96-well plate format protocol using either colorimetric p-nitroaniline (pNA) substrate or fluorometric Amino-Methyl-Coumarin (AMC) specific for each enzyme was used as described previously (PCT Patent Application No. WO 00/09543) with some modifications to the serine protease assays. All enzymes were purchased from Sigma, EMDbiosciences while the substrates were from Bachem, Sigma and EMDbiosciences.
The pNA assay for Chymotrypsin included a 1 h enzyme-inhibitor pre-incubation at room temperature followed by addition of substrate and hydrolysis to ˜15% conversion as measured on a Spectramax Pro microplate reader. Compound concentrations varied from 100 to 0.4 μM depending on their potency. Cathepsin B, HNE, and PPE assays each was initiated by addition of substrate to enzyme-inhibitor pre-incubated for 10 min at room temperature and hydrolysis to 15% conversion as measured on cytofluor. […]
The percentage of inhibition was calculated using the formula: [1−((UVinh−UVblank)/(UVctl−UVblank))]×100 […]

Question: Which results are given for `C=C[C@@H]1C[C@]1(NC(=O)[C@@H]1C[C@@H](Oc2nc(N(C)C)cc3cc(OC)ccc23)CN1C(=O)C(Nc1cc(C)cc(C)n1)C(C)(C)C)C(=O)NS(=O)(=O)C1CC1` (single isomer, unassigned) [Compound 18]?
Answer: EC50 ([1]; Huh-7, read-out: EC50 in the replicon FRET assay, replicon FRET assay): 9 nM; EC50 ([1]; Huh-7, read-out: HCV Pro Replicon (EC50), HCV replicon cell assay, activity range class): 3 to 100 nM; IC50 [2]: > 50000 nM
